Reference: US8993557B2, “Pyridinedione carboxamide inhibitors of endothelial lipase” (Bristol-Myers Squibb Company, priority 2011, dated 2015)

molecular target: Endothelial lipase (EL) (Homo sapiens (Human), UniProt Q9Y5X9); experiment: Endothelial lipase (EL) enzymatic assay with fluorescent substrate A10070 in DMPG vesicles; format: biochemical; conditions: conditioned media from HT-1080 cells overexpressing endogenous EL; 20 min preincubation at 37° C.; read-out: HLE_EL_CRC IC50
Protocol: Endothelial lipase activity was measured using a fluorescent substrate, A10070, (Invitrogen, CA) doped into an artificial vesicle containing DMPG (Avanti Polar Lipids) as the excipient. Vesicles were prepared by combining 285 uL of 1 mM DMPG in a 1:1 mixture of MeOH and CHCl3 with 15 uL of 1 mM A10070 in a 1:1 mixture of MeOH and CHCl3. The mixture was dried under nitrogen and resuspended in 150 uL of 50 mM HEPES pH 8.0 buffer containing 100 mM NaCl and 0.2 mM EDTA. The sample was allowed to sit at rt for 15 min and then was sonicated 3×4 mins on ice with a Branson Sonicator using duty cycle 1. This preparation provides vesicles with a mole fraction of 0.05 for the FRET substrate.
The enzymatic assay was measured using white, opaque 96-well half area plates. Each well contained 60 uL of assay buffer (50 mM HEPES pH 8.0, 50 mM NaCl and 1 mM CaCl2) and 2 ul of a DMSO solution containing compound of interest. Conditioned media obtained from HT-1080 cells, which were transformed by RAGE technology (Athersys) to overexpress endogenous EL, was added and the reaction was allowed to incubate for 20 min at 37° C. with gentle agitation. The reaction was started by the addition of 20 uL of a 1:4 dilution of vesicles. The final total reaction volume was 100 uL. The reaction rates were measured on a Gemini plate reader with an excitation wavelength of 488 nm and a emission of 530 nm. Readings were taken every 20 seconds for 10 min with agitation between each reading. The slope of the linear portion of the readout was used to calculate the rate of the reaction.

Chain of Endothelial lipase (EL) (Q9Y5X9 21-500): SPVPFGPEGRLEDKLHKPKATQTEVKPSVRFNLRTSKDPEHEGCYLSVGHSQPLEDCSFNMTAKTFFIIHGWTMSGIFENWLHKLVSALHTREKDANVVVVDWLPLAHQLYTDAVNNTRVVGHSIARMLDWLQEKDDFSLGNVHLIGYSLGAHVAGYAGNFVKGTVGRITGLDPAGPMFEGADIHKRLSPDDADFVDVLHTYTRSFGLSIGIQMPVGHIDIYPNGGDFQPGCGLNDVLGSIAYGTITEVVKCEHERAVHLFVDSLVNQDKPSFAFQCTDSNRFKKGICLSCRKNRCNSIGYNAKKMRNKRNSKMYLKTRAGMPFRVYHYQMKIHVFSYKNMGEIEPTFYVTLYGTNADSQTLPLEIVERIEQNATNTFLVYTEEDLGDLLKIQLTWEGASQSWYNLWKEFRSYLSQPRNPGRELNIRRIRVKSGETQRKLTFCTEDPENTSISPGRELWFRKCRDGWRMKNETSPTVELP

Row | Compound | IC50
1 | Cn1ccc(C(=O)NCc2ccc(Oc3ccc(F)cc3)cc2)c(O)c1=O [Example 16, N-(4-(4-fluorophenoxy)benzyl)-3-hydroxy-1-methyl-2-oxo-1,2-dihydropyridine-4-carboxamide] | 10 nM
2 | Cn1ccc(C(=O)NCc2cccc(-c3ccccc3)c2)c(O)c1=O [Example 21, N-(biphenyl-3-ylmethyl)-3-hydroxy-1-methyl-2-oxo-1,2-dihydropyridine-4-carboxamide] | 17.9 nM
3 | Cn1ccc(C(=O)NCc2ccccc2N2CCCCC2)c(O)c1=O [Example 29, 3-hydroxy-1-methyl-2-oxo-N-(2-(piperidin-1-yl)benzyl)-1,2-dihydropyridine-4-carboxamide] | 6540 nM
4 | Cn1ccc(C(=O)NCc2ccccc2N2CCCC2)c(O)c1=O [Example 31, 3-hydroxy-1-methyl-2-oxo-N-(2-(pyrrolidin-1-yl)benzyl)-1,2-dihydropyridine-4-carboxamide] | 6450 nM
5 | Cn1c(C(F)(F)F)cc(C(=O)NCc2cccc(-c3ccc(Cl)cc3)c2)c(O)c1=O [Example 32, N-((4′-chlorobiphenyl-3-yl)methyl)-3-hydroxy-1-methyl-2-oxo-6-(trifluoromethyl)-1,2-dihydropyridine-4-carboxamide] | 11.3 nM
6 | O=C(NC1CCN(c2ccc(F)cc2)CC1)c1ccn(CC(F)(F)F)c(=O)c1O [Example 33, N-(1-(4-fluorophenyl)piperidin-4-yl)-3-hydroxy-2-oxo-1-(2,2,2-trifluoroethyl)-1,2-dihydropyridine-4-carboxamide] | 4570 nM
7 | O=C(N[C@H]1CC[C@@H](c2ccccc2)CC1)c1ccn(CCC(F)(F)F)c(=O)c1O [Example 37, 3-hydroxy-2-oxo-N-(cis-4-phenylcyclohexyl)-1-(3,3,3-trifluoropropyl)-1,2-dihydropyridine-4-carboxamide] | 352 nM
8 | O=C(N[C@H]1CC[C@@H](c2ccccc2)CC1)c1ccn(CCCC(F)(F)F)c(=O)c1O [Example 39, 3-hydroxy-2-oxo-N-(cis-4-phenylcyclohexyl)-1-(4,4,4-trifluorobutyl)-1,2-dihydropyridine-4-carboxamide] | 692 nM
9 | O=C(NCc1ccccc1-c1ccc(F)cc1)c1ccn(CC(F)(F)F)c(=O)c1O [Example 41, N-((4′-fluorobiphenyl-2-yl)methyl)-3-hydroxy-2-oxo-1-(2,2,2-trifluoroethyl)-1,2-dihydropyridine-4-] | 11.1 nM
10 | Cn1c(Cl)cc(C(=O)NC2CCC(c3ccccc3)CC2)c(O)c1=O (stereo not shown) [Example 44, 6-chloro-3-hydroxy-1-methyl-2-oxo-N-(4-phenylcyclohexyl)-1,2-dihydropyridine-4-carboxamide] | 475 nM
